# Values quoted from earlier work as cited in patent US20190151246A1, “DELAYED-RELEASE TABLETS OF METHYLPHENIDATE” (PRODUCTS & TECHNOLOGY, S.L., priority 2016, published 2019).
compound,measurement,setting,value
"COC(=O)C(c1ccccc1)C1CCCCN1 (centres unmarked) [methylphenidate, methyl 2-phenyl-2-(2-piperidyl)acetate]",half-life in children,"children, estimated",approximately 2.5 hours
same,half-life,in vivo,2 to 4 h
